{"source": "patent US6752989B1", "about": "“Tooth surface treatment agent” (3M ESPE AG, priority 1999, dated 2004)", "tested_on": "fluorescence-marked casein", "assay": "Proteolytic pepsin activity with fluorescence-marked casein after contact with ground bovine dentine", "assay_type": "biochemical", "details": "2.5 ml of 10 μg/ml solution, pH 2.0 buffer, on 1 g ground bovine dentine for 20 min; excitation 480 nm, emission 510 nm", "description": "2.5 ml of a pepsin solution (10 μg/ml) in a 20 mM disodium hydrogen phosphate buffer (pH 2.0) were added to 1 g of ground bovine dentine and allowed to remain there for 20 min. under agitation. Subsequently the mixture was centrifuged for 1 min. in a Heraeus Biofuge Pico at 10,000 rpm. 900 μl of the residue were mixed with 12 μg of fluorescence-marked casein (Molecular Probes company, Göttingen) in 100 μl 20 mM of disodium hydrogen phosphate buffer (pH 2.0). The presence of proteolytic pepsin activity is manifested in the increase in fluorescence with an excitation wave length of 480 nm and with an emission wave length of 510 nm.", "data": [{"substance": "pepsin", "values": [{"measurement": "proteolytic pepsin activity (increase in fluorescence)", "value": "no pepsin activity was determinable any more"}]}]}
